Results as given in patent publication US12533349B2, “Drug formulations for reservoir-based delivery” (Medtronic, Inc., priority 2020, dated 2026).

Legend:
Assay type in all cases: physicochemical
[1] = Differential HSP between drug and drug-contacting material of SynchroMed II infusion device; conditions: bupivacaine vs drug-contacting material (silicone); less than 7 is considered high risk of migration
Excerpt: (§1) Without intending to be bound by theory, it is believed that HSP provides a thermodynamic indication of whether a compound will migrate into a component of the reservoir-based delivery device, such as a polymeric component of the reservoir-based delivery device. Greater differences between HSPs of the compound and the component tend to result in lower amounts of migration.
For purposes of the present disclosure, differential HSP values of less than 7 are considered to be of high risk, HSP values between 7 and 10 are considered to be of medium risk, and HSP values of greater than 10 are considered to be of low risk for the drug to migrate into the component of the reservoir-based delivery device. Differential HSP values may be determined as described in Kitak, et al. (2015), “Determination of Solubility Parameters of Ibuprofen and Ibuprofen Lysinate,” Molecules, 20:21549-21568. […]
In the following, non-limiting example development of a bupivacaine formulation for use in a reservoir-based delivery device is shown. The drug delivery device for which compatibility was determined was Medtronic, Inc.'s SynchroMed® II implantable infusion device. […]
The differential HSP value was determined to be 4.2, which is considered to be high risk of the drug migrating into the drug-contacting material.

[2] = Potential for chemical reaction between functional groups of drug and drug-contacting material; conditions: drug-contacting material silicone
Excerpt: The presence of certain functional groups on the drug or components of the formulation and certain functional groups on drug formulation contacting materials of the reservoir-based delivery devices may result in concern for chemical reaction between one or more ingredients of the formulation and the drug formulation contacting materials.
For example, silyl ether groups which may be present on silicone drug formulation contacting materials may react with amine groups, phosphate groups, or carboxylate groups of ingredients of the drug formulation.
In the following, non-limiting example development of a bupivacaine formulation for use in a reservoir-based delivery device is shown. The drug delivery device for which compatibility was determined was Medtronic, Inc.'s SynchroMed® II implantable infusion device. The material of the component of the SynchroMed® II for which compatibility was tested was silicone. Bupivacaine may migrate into silicone without consideration of formulation.
In addition, it was determined that bupivacaine has a high risk of potential for chemical reaction between functional groups in bupivacaine and the functional groups in the drug-contacting material.

[3] = Hansen Solubility Parameters (HSP) determination; conditions: Hansen Solubility Parameter
Excerpt: as §1
For purposes of the present disclosure, differential HSP values of less than 7 are considered to be of high risk, HSP values between 7 and 10 are considered to be of medium risk, and HSP values of greater than 10 are considered to be of low risk for the drug to migrate into the component of the reservoir-based delivery device. Differential HSP values may be determined as described in Kitak, et al. (2015), “Determination of Solubility Parameters of Ibuprofen and Ibuprofen Lysinate,” Molecules, 20:21549-21568. One useful measurement of differential HSP values is described in Equation (4) of Kitak, et al. on page 21550. Other useful measurements include Equations (5), (6), and (7) of Kitak, et al. on pages 21550-21551.
The HSP of bupivacaine and the drug contacting material (silicone) were determined.

differential HSP value [1]: 4.2
risk of potential for chemical reaction between functional groups in bupivacaine and in the drug-contacting material [2]: high risk
HSP δD ([3]; δD component): 18.1
HSP δH ([3]; δH component): 6.03
HSP δP ([3]; δP component): 6.46
SMILES: CCCCN1CCCCC1C(=O)Nc1c(C)cccc1C (centres unmarked) [bupivacaine]
